Test results as given in patent publication US8741906B2 (priority 2011, dated 2014).
pEC50: −log10 of the molar value. Like-named read-outs stand apart in the source and are kept apart here.

How the values were obtained:
[1] = molecular target: T1, human CB1 receptors (Homo sapiens, UniProt P21554); experiment: functional cAMP assay, human CB1; assay type: cell-based
T1 construct: expressed in transfected cells; host or cells: CHO cells
In short: (§1)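 Cells are seeded 17-24 h ahead, then preincubated in Krebs Ringer bicarbonate buffer with 1 mM IBMX at 30 °C. Compounds act for 30 min at 30 °C, after which lysis and cAMP detection reagents are added for 2 h at room temperature. Time-resolved FRET gives cAMP content, and EC50 values are fitted from it.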

[2] = molecular target: T2, human CB2 receptors (Homo sapiens, UniProt P34972); experiment: functional cAMP assay, human CB2; assay type: cell-based
T2 construct: expressed in transfected cells; host or cells: CHO cells
T2 sequence (P34972 whole entry): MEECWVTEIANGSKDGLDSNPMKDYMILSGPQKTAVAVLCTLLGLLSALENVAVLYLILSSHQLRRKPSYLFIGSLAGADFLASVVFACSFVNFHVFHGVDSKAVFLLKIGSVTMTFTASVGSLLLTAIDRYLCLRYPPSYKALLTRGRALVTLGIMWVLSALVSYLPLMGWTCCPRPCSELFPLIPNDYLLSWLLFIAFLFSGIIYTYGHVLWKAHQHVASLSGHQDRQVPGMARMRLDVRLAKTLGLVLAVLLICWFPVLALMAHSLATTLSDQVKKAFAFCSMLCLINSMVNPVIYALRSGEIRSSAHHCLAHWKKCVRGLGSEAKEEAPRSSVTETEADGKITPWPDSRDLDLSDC
In short: as §1

[3] = CHO cells expressing human CB1, cAMP, read-out: human CB1 EC50
[4] = CHO cells expressing human CB2, cAMP, read-out: human CB2 EC50

T1 sequence (P21554 whole entry): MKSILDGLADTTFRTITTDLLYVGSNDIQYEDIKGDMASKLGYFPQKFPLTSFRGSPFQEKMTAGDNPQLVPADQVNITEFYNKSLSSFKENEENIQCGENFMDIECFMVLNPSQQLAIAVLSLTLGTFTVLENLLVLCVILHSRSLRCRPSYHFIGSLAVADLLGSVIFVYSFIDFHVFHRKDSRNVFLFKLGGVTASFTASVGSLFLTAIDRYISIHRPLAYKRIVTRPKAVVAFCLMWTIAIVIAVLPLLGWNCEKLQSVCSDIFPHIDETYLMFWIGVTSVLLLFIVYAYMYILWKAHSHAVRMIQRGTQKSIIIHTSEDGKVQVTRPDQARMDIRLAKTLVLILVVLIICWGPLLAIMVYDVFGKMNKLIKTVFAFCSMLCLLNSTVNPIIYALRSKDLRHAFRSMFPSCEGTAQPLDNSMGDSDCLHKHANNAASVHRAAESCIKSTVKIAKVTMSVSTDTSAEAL

| SMILES | pEC50 [1, 3] | pEC50 [2, 4] | pEC50 [1] | pEC50 [2] |
| --- | --- | --- | --- | --- |
| Cc1cc(Cn2nnc3c(N4CCC(F)(F)C4)nc(C(C)(C)C)nc32)n(C)n1 [Example 144, 5-tert-Butyl-7-(3,3-difluoro-pyrrolidin-1-yl)-3-(2,5-dimethyl-2H-pyrazol-3-ylmethyl)-3H-[1,2,3]triazolo[4,5-d]pyrimidine] | 6.91 | 9.40 |  |  |
| Cn1nncc1Cn1nnc2c(N3CCC(F)(F)C3)nc(C(C)(C)C)nc21 [Example 145, 5-tert-Butyl-7-(3,3-difluoro-pyrrolidin-1-yl)-3-(3-methyl-3H-[1,2,3]triazol-4-ylmethyl)-3H-[1,2,3]triazolo[4,5-d]pyrimidine] | 5.65 | 9.70 |  |  |
| Cc1nnc(Cn2nnc3c(N4CCC(F)(F)C4)nc(C(C)(C)C)nc32)n1C [Example 146, 5-tert-Butyl-7-(3,3-difluoro-pyrrolidin-1-yl)-3-(4,5-dimethyl-4H-[1,2,4]triazol-3-ylmethyl)-3H-[1,2,3]triazolo[4,5-d]pyrimidine] | < 5.00 | 9.30 |  |  |
| Cc1c(Cn2nnc3c(N4CCC(F)(F)C4)nc(C(C)(C)C)nc32)ccc[n+]1[O-] [Example 147, 5-tert-Butyl-7-(3,3-difluoro-pyrrolidin-1-yl)-3-(2-methyl-1-oxy-pyridin-3-ylmethyl)-3H-[1,2,3]triazolo[4,5-d]pyrimidine] | 6.68 | 9.52 |  |  |
| CC(C)(C)c1nc(N2CC[C@H](O)C2)c2nnn(Cc3nccc(Cl)c3Cl)c2n1 [Example 148, (S)-1-[5-tert-Butyl-3-(3,4-dichloro-pyridin-2-ylmethyl)-3H-[1,2,3]triazolo[4,5-d]pyrimidin-7-yl]-pyrrolidin-3-ol] | < 5.00 | 9.40 |  |  |
| Cc1nc(Cn2nnc3c(N4CC[C@H](O)C4)nc(C(C)(C)C)nc32)no1 [Example 149, (S)-1-[5-tert-Butyl-3-(5-methyl-[1,2,4]oxadiazol-3-ylmethyl)-3H-[1,2,3]triazolo[4,5-d]pyrimidin-7-yl]-pyrrolidin-3-ol] | < 5.00 | 7.76 |  |  |
| Cc1nnc(Cn2nnc3c(N4CC[C@H](O)C4)nc(C(C)(C)C)nc32)o1 [Example 150, (S)-1-[5-tert-Butyl-3-(5-methyl-[1,3,4]oxadiazol-2-ylmethyl)-3H-[1,2,3]triazolo[4,5-d]pyrimidin-7-yl]-pyrrolidin-3-ol] | < 5.00 | 7.44 |  |  |
| Cn1nnnc1Cn1nnc2c(N3CC[C@H](O)C3)nc(C(C)(C)C)nc21 [Example 151, (S)-1-[5-tert-Butyl-3-(1-methyl-1H-tetrazol-5-ylmethyl)-3H-[1,2,3]triazolo[4,5-d]pyrimidin-7-yl]-pyrrolidin-3-ol] |  |  | < 5.00 | 8.85 |
| Cn1ncnc1Cn1nnc2c(N3CC[C@H](O)C3)nc(C(C)(C)C)nc21 [Example 152, (S)-1-[5-tert-Butyl-3-(2-methyl-2H-[1,2,4]triazol-3-ylmethyl)-3H-[1,2,3]triazolo[4,5-d]pyrimidin-7-yl]-pyrrolidin-3-ol] | < 5.00 | 7.98 |  |  |
| Cc1nnc(Cn2nnc3c(N4CC[C@H](O)C4)nc(C(C)(C)C)nc32)n1C [Example 153, (S)-1-[5-tert-Butyl-3-(4,5-dimethyl-4H-[1,2,4]triazol-3-ylmethyl)-3H-[1,2,3]triazolo[4,5-d]pyrimidin-7-yl]-pyrrolidin-3-ol] | < 5.00 | 7.92 |  |  |
| Cn1nncc1Cn1nnc2c(N3CC[C@H](O)C3)nc(C(C)(C)C)nc21 [Example 154, (S)-1-[5-tert-Butyl-3-(3-methyl-3H-[1,2,3]triazol-4-ylmethyl)-3H-[1,2,3]triazolo[4,5-d]pyrimidin-7-yl]-pyrrolidin-3-ol] | < 5.00 | 8.60 |  |  |
| Cc1cc(Cn2nnc3c(N4CC[C@H](O)C4)nc(C(C)(C)C)nc32)n(C)n1 [Example 155, (S)-1-[5-tert-Butyl-3-(2,5-dimethyl-2H-pyrazol-3-ylmethyl)-3H-[1,2,3]triazolo[4,5-d]pyrimidin-7-yl]-pyrrolidin-3-ol] | < 5.00 | 8.52 |  |  |
| CC(C)(C)c1nc(N2CCC(F)(F)C2)c2nnn(Cc3nc(C(F)(F)F)no3)c2n1 [Example 156, 5-tert-Butyl-7-(3,3-difluoro-pyrrolidin-1-yl)-3-(3-trifluoromethyl-[1,2,4]oxadiazol-5-ylmethyl)-3H-[1,2,3]triazolo[4,5-d]pyrimidine] | < 5.00 | 8.25 |  |  |
| CC(C)(C)c1nc(N2CCC(F)(F)C2)c2nnn(Cc3nnnn3C3CC3)c2n1 [Example 157, 5-tert-Butyl-3-(1-cyclopropyl-1H-tetrazol-5-ylmethyl)-7-(3,3-difluoro-pyrrolidin-1-yl)-3H-[1,2,3]triazolo[4,5-d]pyrimidine] | < 5.00 | 10.00 |  |  |
| CC(C)(C)c1nc(N2CC[C@H](O)C2)c2nnn(Cc3cccnc3Nc3ccc([N+](=O)[O-])c4nonc34)c2n1 [Example 158, (S)-1-{5-tert-Butyl-3-[2-(7-nitro-benzo[1,2,5]oxadiazol-4-ylamino)-pyridin-3-ylmethyl]-3H-[1,2,3]triazolo[4,5-d]pyrimidin-7-yl}-pyrrolidin-3-ol] |  | 6.60 | < 5.00 |  |
| COc1ccc(Cn2nnc3c(N4CC[C@H](O)[C@@H]4CO)nc(C(C)(C)C)nc32)cc1 [Example 159, (2S,3S)-1-[5-tert-Butyl-3-(4-methoxy-benzyl)-3H-[1,2,3]triazolo[4,5-d]pyrimidin-7-yl]-2-hydroxymethyl-pyrrolidin-3-ol] | < 5.00 | 7.45 |  |  |
| CC(C)(C)c1nc(N2CC[C@H](O)C2)c2nnn(Cc3nnnn3C3CC3)c2n1 [Example 160, (S)-1-[5-tert-Butyl-3-(1-cyclopropyl-1H-tetrazol-5-ylmethyl)-3H-[1,2,3]triazolo[4,5-d]pyrimidin-7-yl]-pyrrolidin-3-ol] | < 5.00 | 9.15 |  |  |
| Cc1nc(Cn2nnc3c(N4CC[C@H](O)C4)nc(C(C)(C)C)nc32)n(C)n1 [Example 161, (S)-1-[5-tert-Butyl-3-(2,5-dimethyl-2H-[1,2,4]triazol-3-ylmethyl)-3H-[1,2,3]triazolo[4,5-d]pyrimidin-7-yl]-pyrrolidin-3-ol] | < 5.00 | 7.08 |  |  |
| Cc1c(Cn2nnc3c(N4CC[C@H](O)C4)nc(C(C)(C)C)nc32)ccc[n+]1[O-] [Example 162, (S)-1-[5-tert-Butyl-3-(2-methyl-1-oxy-pyridin-3-ylmethyl)-3H-[1,2,3]triazolo[4,5-d]pyrimidin-7-yl]-pyrrolidin-3-ol] | < 5.00 | 7.56 |  |  |
| Cc1nc(Cn2nnc3c(N4CCC(F)(F)C4)nc(C(C)(C)C)nc32)n(C)n1 [Example 163, 5-tert-Butyl-7-(3,3-difluoro-pyrrolidin-1-yl)-3-(2,5-dimethyl-2H-[1,2,4]triazol-3-ylmethyl)-3H-[1,2,3]triazolo[4,5-d]pyrimidine] | < 5.00 | 8.26 |  |  |
| Cc1nonc1Cn1nnc2c(N3CC[C@H](O)[C@@H]3CO)nc(C(C)(C)C)nc21 [Example 164, (2S,3S)-1-[5-tert-Butyl-3-(4-methyl-furazan-3-ylmethyl)-3H-[1,2,3]triazolo[4,5-d]pyrimidin-7-yl]-2-hydroxymethyl-pyrrolidin-3-ol] | < 5.00 | 9.10 |  |  |
| Cn1nnnc1Cn1nnc2c(N3CC[C@H](O)[C@@H]3CO)nc(C(C)(C)C)nc21 [Example 165, (2S,3S)-1-[5-tert-Butyl-3-(1-methyl-1H-tetrazol-5-ylmethyl)-3H-[1,2,3]triazolo[4,5-d]pyrimidin-7-yl]-2-hydroxymethyl-pyrrolidin-3-ol] | < 5.00 | 7.27 |  |  |
| CC(C)(C)c1nc(N2CC[C@H](O)[C@@H]2CO)c2nnn(Cc3nnnn3C3CC3)c2n1 [Example 166, (2S,3S)-1-[5-tert-Butyl-3-(1-cyclopropyl-1H-tetrazol-5-ylmethyl)-3H-[1,2,3]triazolo[4,5-d]pyrimidin-7-yl]-2-hydroxymethyl-pyrrolidin-3-ol] | < 5.00 | 7.74 |  |  |
| CC(C)(C)c1nc(N2CC[C@H](O)[C@@H]2CO)c2nnn(Cc3ncccc3Cl)c2n1 [Example 167, (2S,3S)-1-[5-tert-Butyl-3-(3-chloro-pyridin-2-ylmethyl)-3H-[1,2,3]triazolo[4,5-d]pyrimidin-7-yl]-2-hydroxymethyl-pyrrolidin-3-ol] | < 5.00 | 8.42 |  |  |
| CC(C)(C)c1nc(N2CC[C@H](O)[C@@H]2CO)c2nnn(Cc3ccccc3S(C)(=O)=O)c2n1 [Example 168, (2S,3S)-1-[5-tert-Butyl-3-(2-methanesulfonyl-benzyl)-3H-[1,2,3]triazolo[4,5-d]pyrimidin-7-yl]-2-hydroxymethyl-pyrrolidin-3-ol] | < 5.00 | 8.03 |  |  |
| Cn1ncnc1Cn1nnc2c(N3CC[C@H](O)[C@@H]3CO)nc(C(C)(C)C)nc21 [Example 169, (2S,3S)-1-[5-tert-Butyl-3-(2-methyl-2H-[1,2,4]triazol-3-ylmethyl)-3H-[1,2,3]triazolo[4,5-d]pyrimidin-7-yl]-2-hydroxymethyl-pyrrolidin-3-ol] |  | 6.70 | < 5.00 |  |
| Cc1nnc(Cn2nnc3c(N4CC[C@H](O)[C@@H]4CO)nc(C(C)(C)C)nc32)n1C [Example 170, (2S,3S)-1-[5-tert-Butyl-3-(4,5-dimethyl-4H-[1,2,4]triazol-3-ylmethyl)-3H-[1,2,3]triazolo[4,5-d]pyrimidin-7-yl]-2-hydroxymethyl-pyrrolidin-3-ol] |  | 6.71 | < 5.00 |  |
| Cn1nncc1Cn1nnc2c(N3CC[C@H](O)[C@@H]3CO)nc(C(C)(C)C)nc21 [Example 171, (2S,3S)-1-[5-tert-Butyl-3-(3-methyl-3H-[1,2,3]triazol-4-ylmethyl)-3H-[1,2,3]triazolo[4,5-d]pyrimidin-7-yl]-2-hydroxymethyl-pyrrolidin-3-ol] | < 5.00 | 7.27 |  |  |
